From ChEMBL document CHEMBL1135798, “Structure-activity relationships of the antimalarial agent artemisinin. 6. The development of predictive in vitro potency models using CoMFA and HQSAR methodologies” (2002)

What follows are compounds tested on Plasmodium falciparum (assay: Antimalarial activity against chloroquine-resistant, mefloquine-sensitive Plasmodium falciparum W2).
Type: functional

Going from `CCC[C@@]12CC[C@H]3[C@H](C)CC[C@H]4CC(=O)O[C@H](O1)[C@]43OO2` to `CCOC(=O)CC[C@@]12CC[C@H]3[C@H](C)CC[C@H]4CC(=O)O[C@H](O1)[C@]43OO2`, the “Log RA” value falls from 0.83 to 0.37.

Going from `COC(=O)c1ccc(C(=O)OCC[C@@H]2CCC[C@@H]3CC[C@@]4(C)OO[C@]32[C@@H](OC)O4)cc1` to `CO[C@H]1O[C@@]2(C)CC[C@H]3CCC[C@@H](CCOC(=O)c4ccccc4)[C@]31OO2`, the “Log RA” value falls from 0.27 to -0.59.

`CCCC[C@@]12CC[C@H]3[C@H](C)CC[C@H]4CCO[C@H](O1)[C@]43OO2` and `CCC[C@@]12CC[C@H]3[C@H](C)CC[C@H]4CCO[C@H](O1)[C@]43OO2` are within 0.2 log units of each other in “Log RA” value: 0.75 for the first, 0.84 for the second.

`CC(C)CN1C(=O)C[C@@H]2CC[C@@H](C)[C@@H]3CC[C@@]4(C)OO[C@@]23[C@H]1O4` and `CC(C)CCN1C(=O)C[C@@H]2CC[C@@H](C)[C@@H]3CC[C@@]4(C)OO[C@@]23[C@H]1O4` are within 0.2 log units of each other in “Log RA” value: 0.02 for the first, -0.04 for the second.

`C[C@@H]1CC[C@H]2[C@@H](CCCCc3ccccc3)C(=O)O[C@@H]3O[C@@]4(C)CC[C@@H]1[C@]32OO4` and `C[C@@H]1CC[C@H]2[C@@H](CCCc3ccccc3)C(=O)O[C@@H]3O[C@@]4(C)CC[C@@H]1[C@]32OO4` are within 0.2 log units of each other in “Log RA” value: 0.63 for the first, 0.78 for the second.

First: C[C@@H]1CCC[C@@]23CO[C@@](C)(CC[C@@H]12)OO3
Second: CO[C@]1(C)CC[C@H]2[C@H](C)CCC[C@]2(C=O)OO1
The “Log RA” value of the first is higher: -0.32 for the first, -3.3 for the second.

Going from `CCCC[C@H]1C(=O)O[C@@H]2O[C@@]3(CCCc4ccc(Cl)cc4)CC[C@H]4[C@H](C)CC[C@@H]1[C@@]24OO3` to `C[C@@H]1CC[C@H]2[C@@H](CCCc3ccc(Cl)cc3)C(=O)O[C@@H]3O[C@@]4(C)CC[C@@H]1[C@]32OO4`, the “Log RA” value rises from -0.28 to 1.37.

Going from `CCO[C@H]1O[C@@H]2O[C@@]3(C)CC(O)[C@H]4C(C)CC[C@@H]([C@H]1C)[C@@]24OO3` (stereo partly drawn) to `CCO[C@@H]1O[C@@H]2O[C@@]3(C)CC[C@H]4[C@H](C)CC[C@@H]([C@H]1C)[C@@]24OO3`, the “Log RA” value rises from -1.08 to 0.32.

Compared with `C=C1C(=O)O[C@@H]2O[C@@]3(C)CC[C@H]4[C@H](C)CC[C@@H]1[C@@]24OO3` [ARTEMISITENE], `C=C1C(O)O[C@@H]2O[C@@]3(C)CC[C@H]4[C@H](C)CC[C@@H]1[C@@]24OO3` (stereo partly drawn) is lower in “Log RA” value: -0.89 for the first, -2.39 for the second.

First: C[C@@H]1CC[C@@H]2[C@]34OO[C@](C)(CC[C@@H]13)O[C@H]4OC(Nc1cccc(F)c1)[C@@]2(C)Br (stereo partly drawn)
Second: C[C@@H]1CC[C@@H]2[C@]34OO[C@](C)(CC[C@@H]13)O[C@H]4OC(Nc1ccccn1)[C@@]2(C)Br (stereo partly drawn)
The “Log RA” value of the first is higher: 0.79 for the first, -0.09 for the second.

Going from `C[C@@H]1CCC2[C@@H](C)C(=O)OC3OC(C)(C)OO[C@@]32[C@H]1C` (stereo partly drawn) to `C[C@@H]1CC[C@H]2[C@@H](C)C(=O)O[C@@H]3O[C@@]4(C)CC[C@@H]1[C@]32OO4` [ARTEMISININ], the “Log RA” value rises from -0.86 to 0.

Going from `CCC[C@@H](Cc1ccccc1)OC1O[C@@H]2O[C@@]3(C)CC[C@H]4[C@H](C)CC[C@@H]([C@H]1C)[C@@]24OO3` (stereo partly drawn) to `CCOC(=O)[C@@H](O[C@H]1O[C@@H]2O[C@@]3(C)CC[C@H]4[C@H](C)CC[C@@H]([C@H]1C)[C@@]24OO3)c1ccccc1`, the “Log RA” value rises from 0.31 to 1.25.

`CC(=O)Oc1ccc([C@@H](C)O[C@H]2O[C@@H]3O[C@@]4(C)CC[C@H]5[C@H](C)CC[C@@H]([C@H]2C)[C@@]35OO4)cc1` and `CC(=O)Oc1ccc([C@H](C)O[C@H]2O[C@@H]3O[C@@]4(C)CC[C@H]5[C@H](C)CC[C@@H]([C@H]2C)[C@@]35OO4)cc1` are the same in “Log RA” value: 0.68 for the first, 0.68 for the second.

Going from `CCCC[C@H]1C(=O)O[C@@H]2O[C@@]3(C)CC[C@H]4[C@H](C)CC[C@@H]1[C@@]24OO3` to `CC(C)C[C@H]1C(=O)O[C@@H]2O[C@@]3(C)CC[C@H]4[C@H](C)CC[C@@H]1[C@@]24OO3`, the “Log RA” value falls from 0.17 to -0.55.

First: C[C@@H]1CC[C@H]2CCO[C@@H]3O[C@@]4(CCCCc5ccccc5)CC[C@@H]1[C@@]23OO4
Second: C[C@@H]1CC[C@H]2CC(=O)O[C@@H]3O[C@@]4(CCc5ccccc5)CC[C@@H]1[C@@]23O4
The “Log RA” value of the first is higher: 0.58 for the first, -4 for the second.

`C[C@@H]1CC[C@H]2[C@@H](CCCc3ccccc3)C(=O)O[C@@H]3O[C@@]4(C)CC[C@@H]1[C@]32O4` and `C[C@@H]1CC[C@H]2[C@@H](CCCCc3ccccc3)C(=O)O[C@@H]3O[C@@]4(C)CC[C@@H]1[C@]32O4` are the same in “Log RA” value: -4 for the first, -4 for the second.

Compared with `CCOC(=O)C[C@@H](O[C@H]1O[C@@H]2O[C@@]3(C)CC[C@H]4[C@H](C)CC[C@@H]([C@H]1C)[C@@]24OO3)c1ccc([N+](=O)[O-])cc1`, `C[C@H]1[C@@H](O[C@@H](C)c2ccc(C(F)(F)F)cc2)O[C@@H]2O[C@@]3(C)CC[C@H]4[C@H](C)CC[C@@H]1[C@@]24OO3` is lower in “Log RA” value: 0.9 for the first, 0.15 for the second.

Going from `CO[C@@H]1O[C@@]2(C)CC[C@H]3CCCC[C@]31OO2` to `CO[C@@H]1O[C@@]2(C)CC[C@H]3CCC[C@@H](CCOC(=O)N(C)C)[C@]31OO2`, the “Log RA” value rises from -1.04 to 0.33.

First: CC1C(=O)O[C@@H]2C[C@@]3(C)CC[C@H]4[C@H](C)CC[C@@H]1[C@@]24OO3 (stereo partly drawn)
Second: C[C@@H]1CC[C@@H]2[C@@H](C)CO[C@@H]3C[C@]4(C)CC[C@@H]1[C@]23OO4
The “Log RA” value of the first is lower: -0.96 for the first, -0.24 for the second.

Compared with `COC(=O)[C@H](C)COC1O[C@@H]2O[C@@]3(C)CC[C@H]4[C@H](C)CC[C@@H]([C@H]1C)[C@@]24OO3` (stereo partly drawn), `COC(=O)C[C@H](C)OC1O[C@@H]2O[C@@]3(C)CC[C@H]4[C@H](C)CC[C@@H]([C@H]1C)[C@@]24OO3` (stereo partly drawn) is lower in “Log RA” value: 2.25 for the first, 0.87 for the second.

First: CCOC(=O)CC[C@@]12CC[C@H]3[C@H](C)CC[C@H]4CCO[C@H](O1)[C@]43O2
Second: CCOC(=O)CC[C@@]12CC[C@H]3[C@H](C)CC[C@H]4CCO[C@H](O1)[C@]43OO2
The “Log RA” value of the first is lower: -4 for the first, 0.7 for the second.

Going from `CC1(C)C[C@]2(c3ccccc3)CC[C@@](c3ccccc3)(C1)OO2` to `C[C@@H]1CC[C@H]2CC(=O)N(CCCc3ccccc3)[C@@H]3O[C@@]4(C)CC[C@@H]1[C@@]23OO4`, the “Log RA” value rises from -2.17 to 0.02.

First: CC(C)[C@H]1C(=O)O[C@@H]2O[C@@]3(C)CC[C@H]4[C@H](C)CC[C@]1(C)[C@@]24OO3
Second: C/C=C/C[C@@H]1C(=O)O[C@@H]2O[C@@]3(C)CC[C@H]4[C@H](C)CC[C@@H]1[C@@]24OO3
The “Log RA” value of the first is higher: -0.04 for the first, -0.6 for the second.

First: CCCCC[C@H]1CO[C@@H]2O[C@@]3(C)CC[C@H]4[C@H](C)CC[C@@H]1[C@@]24OO3
Second: CC[C@H]1CO[C@@H]2O[C@@]3(C)CC[C@H]4[C@H](C)CC[C@@H]1[C@@]24OO3
The “Log RA” value of the first is lower: 0.16 for the first, 0.67 for the second.

First: CO[C@H]1O[C@@]2(C)CC[C@H]3CCC[C@@H](CCOS(=O)(=O)c4ccc(C)cc4)[C@]31OO2
Second: CO[C@H]1O[C@@]2(C)CC[C@H]3CCC[C@@H](CCOCc4cc[n+](C)cc4)[C@]31OO2
The “Log RA” value of the first is higher: 0.2 for the first, -0.9 for the second.

Going from `C[C@@]12C[C@H]3CCC[C@H]4CC(=O)O[C@H](O1)[C@@]34OO2` to `C[C@@H]1CC[C@@H]2[C@]34OO[C@](C)(CC[C@@H]13)O[C@H]4OC(=O)[C@]21CO1`, the “Log RA” value falls from -1.79 to -4.

First: C[C@@H]1CC[C@H]2[C@@H](C)C(OCC3C4CC5CC(C4)CC3C5)O[C@@H]3O[C@@]4(C)CC[C@@H]1[C@]32OO4 (stereo partly drawn)
Second: COC(=O)C[C@@H](C)OC1O[C@@H]2O[C@@]3(C)CC[C@H]4[C@H](C)CC[C@@H]([C@H]1C)[C@@]24OO3 (stereo partly drawn)
The “Log RA” value of the first is lower: 0.28 for the first, 1.7 for the second.

Going from `C[C@@H]1CC[C@@H]2[C@]34OO[C@](C)(CC[C@@H]13)O[C@H]4OC(=O)[C@@]2(Br)CBr` to `C[C@@H]1CC[C@@H]2[C@]34OO[C@](C)(CC[C@@H]13)O[C@H]4OC(=O)[C@@]2(O)CO`, the “Log RA” value falls from -1.64 to -4.

Going from `C[C@H]1[C@@H](O)O[C@@H]2O[C@@]3(C)CC[C@H]4[C@H](C)CC[C@@H]1[C@@]24O3` to `CCO[C@H]1O[C@@H]2O[C@@]3(C)CC[C@H]4C(C)[C@@H](O)C[C@@H]([C@H]1C)[C@@]24OO3` (stereo partly drawn), the “Log RA” value rises from -4 to 0.34.

First: CC(C)CN1C(=O)[C@H](C)[C@@H]2CC[C@@H](C)[C@@H]3CC[C@@]4(C)OO[C@]32[C@H]1O4
Second: C=CCN1C(=O)[C@H](C)[C@@H]2CC[C@@H](C)[C@@H]3CC[C@@]4(C)OO[C@]32[C@H]1O4
The “Log RA” value of the first is higher: 1.03 for the first, -0.04 for the second.

Compared with `C=CC[C@H]1C(=O)O[C@@H]2O[C@@]3(C)CC[C@H]4[C@H](C)CC[C@@H]1[C@@]24OO3`, `C[C@@H]1CC[C@H]2CCO[C@@H]3O[C@@]4(C)CC[C@@H]1[C@@]23OO4` is higher in “Log RA” value: -0.1 for the first, 0.28 for the second.

Going from `CO[C@H]1O[C@@]2(C)CC[C@H]3CCC[C@@H](CCOCc4c(C)noc4C)[C@]31OO2` to `CO[C@H]1O[C@@]2(C)CC[C@H]3CCC[C@@H](CCOC(=O)CNC(=O)OC(C)(C)C)[C@]31OO2`, the “Log RA” value falls from 0.58 to -0.04.

First: C[C@@H]1CC[C@@H]2[C@]34OO[C@](C)(CC[C@@H]13)O[C@H]4OC(=O)[C@@]21CCC1C[Si](C)(C)C (stereo partly drawn)
Second: CC(C)C[C@@]12CC[C@H]3[C@H](C)CC[C@H]4CC(=O)O[C@H](O1)[C@]43O2
The “Log RA” value of the first is higher: -1.24 for the first, -4 for the second.

First: C[C@@H]1CC[C@H]2[C@@H](C)C(=O)N(Cc3ccccn3)[C@@H]3O[C@@]4(C)CC[C@@H]1[C@@]23OO4
Second: CO[C@H]1O[C@]2(C)OO[C@]13[C@H](CCO)CCC[C@@H]3C[C@@H]2C
The “Log RA” value of the first is higher: 1.46 for the first, 0.23 for the second.
